Measurements as given in PubChem BioAssay AID2305 (GlaxoSmithKline (GSK), 2010).
“And” between values parts separate entries of the source, which are not always exact repeats. Equal values may be shown once.

What follows are molecules tested on P. falciparum 3D7 growth, pLDH absorbance (assay: blood-stage malaria parasite growth potency – strain 3D7, dose response (AID 2305)).

SMILES	IC50
COc1cc2c(cc1OC)CC(NCc1ccc(-c3ccc4nc[nH]c4c3)cc1)C2	850 nM
Cc1cc(N(C)C)nc(Nc2ccc(NC(=O)c3ccccc3C)cc2)n1	1130 nM
CCOc1ccccc1NC(=O)C(Sc1nc(C)cc(C)c1C#N)c1ccccc1 (centres undefined)	370 nM
COC(=O)c1ccc(CC(C)NCC(O)c2cccc(OC(F)(F)F)c2)cc1 (centres undefined)	860 nM
Cc1[nH]c(C)c(-c2ccc(Oc3ccc(Cl)cc3Cl)cc2)c(=O)c1Br	300 nM
COc1ccc(C[C@@H](N)C(=O)N[C@H]2[C@@H](O)[C@H](n3cnc4c(N(C)C)ncnc43)O[C@@H]2CO)cc1	170 nM
Cc1[nH]c2ccccc2c1C1=CCN(C[C@H]2C[C@@H]2C(=O)c2ccccc2)CC1	350 nM
O=C(/C=C/c1ccccc1Cl)NC1CCC(CN2CCC(c3c[nH]c4ccccc34)CC2)CC1 (centres undefined)	600 nM and 850 nM
Cc1ncccc1C(=O)Nc1ccc(-c2cccc(-c3nc4c(C)cccc4[nH]3)c2)cc1	730 nM
Cc1noc(C)c1-c1ccc2c(Nc3ccccc3N3CCOCC3)c(C(=O)NCc3ccccc3)cnc2c1	1180 nM
Cc1nc(-c2cccc(C(=O)NC3CCC(CCN4CCc5ccc(-c6cccnc6)cc5CC4)CC3)c2)no1 (centres undefined)	760 nM
Cc1cccc(CNc2nc(C)cc(N[C@@H](Cc3ccccc3)C(=O)NCCOc3ccccc3)n2)c1	910 nM
CC1c2cccc(O)c2CCN1CCc1ccc(Cl)c(Cl)c1 (centres undefined)	140 nM
Cc1ccc(Nc2nccc(NCC(O)c3ccc(C(F)(F)F)cc3)n2)cc1 (centres undefined)	490 nM
Oc1ccc(CCNc2nc(NCCCOc3ccccc3-c3cccnc3)nc(N3CCNCC3)n2)cc1	1040 nM
Cc1cc2ccccc2n1CC(=O)N1CC(C(=O)N2CCCCC2)Oc2ccccc21 (centres undefined)	900 nM
O=C(NCC1CCN(CC2CCCCC2)C1)c1cc(-c2cccc(C(F)(F)F)c2)cs1 (centres undefined)	740 nM
COc1ccc(NC(=O)c2ccc3cc4ccccc4cc3c2)cc1N1CCN(C)CC1	1030 nM
N#Cc1cccc(CNC(=O)c2cccc(Nc3ccnc4ccc(F)cc34)c2)c1	990 nM
CS(=O)(=O)N(c1ccccc1)c1cc(C(=O)N[C@@H](Cc2ccccc2)[C@H](O)CNC2CCCCC2)cc(N2CCCC2=O)c1	80 nM
O=C(Cc1ccccc1)NC(c1ccco1)c1cc(Cl)c2cccnc2c1O (centres undefined)	690 nM
FC(F)(F)COc1c(CCNCCCCNCCc2ccc3ccccc3c2OCC(F)(F)F)ccc2ccccc12	350 nM
COc1ccc(CN(C)CCCOc2ccc(NC(=O)c3cccc4c(=O)c5cccc(F)c5[nH]c34)cc2)cc1OC	640 nM
O=C(Nc1cc(C(F)(F)F)ccc1Cl)c1ccc(Cn2cc(Br)cn2)cc1	1350 nM
CCOC(=O)/C(=N\OC(C(=O)OC(C)(C)C)c1ccccc1)c1csc(NC(c2ccccc2)(c2ccccc2)c2ccccc2)n1 (centres undefined)	1110 nM

SMILES	IC50
CCOc1cc(C(=O)NCCc2ccc(Cl)c(Cl)c2)ccc1-c1nc2ccc(Cl)cc2[nH]1	890 nM
FC(F)(F)c1ccc2nc(-c3ccc(-c4cccc(CNCc5cnn(-c6ccccc6)n5)c4)s3)[nH]c2c1	330 nM
CN(C(=O)/C=C/c1cc(C(F)(F)F)ccc1F)C1CCN(CCCCCNC(=O)/C=C/c2ccc(Cl)c(Cl)c2)C1 (centres undefined)	1090 nM
O=c1cc(NCCCNCc2[nH]c3cc(Cl)ccc3c2Cl)[nH]c2ccccc12	910 nM
COc1ccc2c(NN=Cc3ccc(F)cc3)ccnc2c1	440 nM
O=C(NCCCCN1CCC(O)(c2ccc(Cl)cc2)CC1)c1ccc(Br)cc1	1250 nM
COc1cccc(Nc2nc(Nc3cccc(C#N)c3)cc(C(F)(F)F)n2)c1	830 nM
NC(N)=NCCCCN(Cc1ccccc1)c1ccccc1	740 nM
Cn1c(=N)cc(-c2cccc(I)c2)c2c(=O)[nH]c(N)nc21	270 nM
Cc1cc(NN=Cc2ccccc2F)c2cc(C(F)(F)F)ccc2n1	430 nM
COc1ccc(-c2nc(NC(=O)CS(=O)(=O)c3ccc(F)cc3)sc2C)cc1	240 nM
CC[C@H]1CN2CC[C@@H]1C[C@H]2[C@H](O)c1cc(-c2ccc(Cl)c(Cl)c2)nc2ccc(O)cc12	260 nM
Oc1ccc2ccccc2c1C=NNc1nc(Nc2ccccc2)nc(N2CCOCC2)n1	890 nM
CC1(C)N=C(N)N=C(N)N1c1ccc(Oc2ccccc2)cc1	340 nM
CCCc1cc(Cc2cnc(N)nc2N)cc(CC)c1O	1320 nM
Cc1cc(N[C@@H](CC(C)C)C(=O)NCc2cccs2)nc(NCCc2ccc(F)cc2)n1	800 nM
CN1CCCC(COc2cc3c(cc2Br)CCN3C(=O)Nc2ccc(-c3ccncc3)c(Cl)c2)C1 (centres undefined)	230 nM
O=C(N[C@@H](CC1CCCCC1)C(=O)NCCN1CCCCC1)c1ccc(O)c(-c2cccc(C(F)(F)F)c2)c1	830 nM
C[C@@H](CC1CCCCC1)OC(=O)N[C@H]1CCN(C#N)C1	870 nM
CC(=O)Nc1ccc(CN2CCC(CNC(=O)c3cc(-c4cccc(C(F)(F)F)c4)cs3)C2)cc1 (centres undefined)	1100 nM
Cc1cccc2[nH]c(-c3ccc(-c4cccc(CNCCc5ccncc5)c4)cc3)nc12	200 nM
Cn1ccnc1S(=O)(=O)CCNCc1ccc(-c2ccc3ncnc(Nc4ccc(OCc5cccc(F)c5)c(Cl)c4)c3c2)o1	700 nM
CC(=O)Nc1ccc(C(=O)Nc2ccc(-c3cccc(-c4nc5ccc(C(F)(F)F)cc5[nH]4)c3)cc2)cn1	110 nM
CCOc1ccc(C(=O)Nc2cc(Cl)ccc2O)cc1Cl	700 nM
COc1cccc(CNc2ncc(-c3ccsc3)c(-c3nccs3)n2)c1	420 nM

SMILES	IC50
Nc1nc(N)c2c3c(cnc2n1)CCCC3	770 nM
CN(C)CCCOc1ccc(-c2nc(-c3ccc4c(c3)CCC4=NO)c(-c3ccncc3)[nH]2)cc1	830 nM
COc1cc(O)c2c(=O)c(OC)c(-c3cccc(Cl)c3OC3O[C@H](CO)[C@@H](O)[C@H](O)[C@H]3O)oc2c1OC (some centres undefined)	770 nM
CCc1sc(-c2cc(Cl)ccc2OC)nc1C(=O)NCCN1CCCCC1	940 nM
O=C(Nc1ccc(Oc2ccccc2)cc1)N(Cc1ccc(-c2cccc(CN3CCNCC3)c2)cc1)C1CCN(Cc2ccccc2)CC1	880 nM
CCOCCCNc1nc2cc(OC)c(OC)cc2c2nc(-c3ccccc3)nn12	210 nM
CCOc1c(OC)ccc2c1CCN(CCN1CCC(CNC(=O)c3ccc(-c4ccc(C#N)cc4)cc3)CC1)C2	1080 nM
O=C(Nc1cccc(N2CCC(NCCCc3ccncc3)CC2)c1)c1cccc(C(F)(F)F)c1	850 nM
CCOC(=O)C1CCN(CCOc2cc(NC(=O)/C=C/c3ccccc3Cl)ccc2Br)CC1	990 nM
CSc1nc2cc3c(cc2n1C(=O)c1ccc(C)cc1)OCCO3	170 nM
O=C(Nc1ccccc1)N(Cc1ccccc1-c1cccc(CNCc2ccc3c(c2)OCO3)c1)C1CCN(Cc2ccccc2)CC1	110 nM
Cc1ccc(NC(=O)c2cccc(CN3CCCN(Cc4cccc(O)c4)CC3)c2)cc1	1310 nM
Cc1ccc(Nc2nnc(SCC(=O)Nc3ccc(CN4CCCC4)cc3)s2)cc1	1210 nM
CN(C)CCOc1ccc(-c2cc(-c3ccc(Cl)c(O)c3)c(-c3ccncc3)[nH]2)cc1	580 nM
COc1ccc(CNCc2ccc(-c3ccc(-c4nc5ccccc5[nH]4)cc3)cc2)cc1	240 nM
CC(C)COc1ccc(Cl)cc1Cc1ccc(-c2nc3ccc(CCN4CCCC4)cc3[nH]2)o1	730 nM
O=C(NCCN1CCCCC1)c1cc2cc(-c3ccccc3)ccc2n1S(=O)(=O)c1ccccc1	1120 nM
NC(N)=Nc1nc(-c2cc(NC(=O)C(F)(F)F)cc([N+](=O)[O-])c2)cs1	780 nM
Cc1ccc(O)cc1Nc1ccnc2ccc(-c3cccc(CN(C)C)c3)cc12	510 nM
COc1ccccc1CN1CCC(NC(=O)c2ccc(-c3ccc(N(C)C)cc3)s2)CC1	960 nM
O=C(O)CCCN1CCCC(=C(c2ccccc2)c2ccccc2)C1	1190 nM
CCN1CCN(CC(O)CNC(=O)Nc2ccc(Cl)cc2)CC1 (centres undefined)	150 nM
N#Cc1ccc(CN2CCC(Oc3ccc(NC(=O)c4cccs4)cc3)C2)cc1 (centres undefined)	950 nM
O=c1cc(NCCC(CNCc2cc3ccccc3o2)NCc2cc(Br)cc(Br)c2)[nH]c2ccccc12 (centres undefined)	1210 nM
COC(=O)c1ccc(CCC(C)NCC(O)c2cccc(Cl)c2)cc1 (centres undefined)	670 nM

SMILES	IC50
CN1CCN(c2cccc(Nc3nccc(NCC(O)c4ccccc4)n3)c2)CC1 (centres undefined)	720 nM
OCCn1c(CNCCCNc2nc3ccccc3[nH]2)cc2c(Cl)cc(Cl)cc21	810 nM
Cc1cnc(N2CCN(CC3CCN(C)CC3)CC2)nc1Oc1ccc(-n2ccnc2)cc1	720 nM
COc1ccc2nc3cc(Cl)ccc3c(NCCNCC(O)CO)c2n1 (centres undefined)	150 nM
Cc1noc(C)c1-c1cccc(CNCc2ccc(-c3ccc(-c4nc5ccc(C(F)(F)F)cc5[nH]4)s3)cc2)c1	180 nM
CCCN(CCC)CCOC(=O)C(OCC)(c1ccccc1)c1ccccc1	870 nM
CC(C)NCc1cccc(-c2cccc(-c3nc4ccc(F)cc4[nH]3)c2)c1	280 nM
CCCCCCCCn1c2c(c(=N)c3c1CCC3)CCCC2	110 nM
Cc1ccc(C(=O)NC2CC2)cc1-c1ccc2c(cnn2S(=O)(=O)c2ccc(F)cc2)c1	290 nM
COc1cc(Cc2cnc(N)nc2N)cc(OCCCCC2NC(=O)NC2=O)c1OC (centres undefined)	710 nM
CCNc1cc(C)nc(Nc2ccc(NC(=O)c3ccccc3)cc2)n1	1020 nM
Cc1cc(=O)[nH]c(-n2nc(C)cc2NC(=O)C2(c3ccc(Cl)cc3)CCCC2)n1	290 nM
CC(C)C[C@@H](/C=N/N1CCNC1=O)NC(=O)[C@H](CC(C)C)NC(=O)c1ccc(OCCN2CCOCC2)cc1	190 nM
CN(C)CCNC(=O)c1cc2c(-c3ccc(Cl)cc3)nn(C)c2s1	670 nM
Cn1cc(C2CCN(CCCCCNC(=O)/C=C/c3ccc(Cl)c(Cl)c3)CC2)c2cc(O)ccc21	940 nM
COc1ccc2nccc([C@@H](O)CN3CCC(NCCOc4ccncc4)CC3)c2c1	690 nM
O=C(NCCNc1ccnc2cc(Cl)ccc12)c1ccccc1F	660 nM
Cc1csc(-c2nonc2NC(=O)COc2ccccc2C(C)C)n1	550 nM
CCOc1ccc(C=CC(=O)Nc2ccc3nc(N4CCN(C)CC4)cc(C)c3c2)cc1OC	400 nM
COc1c(CNCCCCCCNCc2c(OC)c(OC)c3ccccc3c2OC)c(OC)c2ccccc2c1OC	960 nM
Cc1cccc(Oc2cccc3[nH]nc(N)c23)c1	1040 nM
CC[C@H]1C[N+]2([O-])CC[C@@H]1C[C@H]2[C@H](O)c1cc(-c2ccccc2)nc2ccc(OC)cc12	840 nM
Cc1cccc2[nH]c(-c3ccc(-c4cccc(NC(=O)CCc5cnc[nH]5)c4)s3)nc12	840 nM
COc1cc(Cc2cnc(N)nc2N)cc(OCCCCc2ccc([N+](=O)[O-])cc2)c1OC	990 nM
